Measured values as given in patent USRE42890E1, “Furazanobenzimidazoles” (Basilea Pharmaceutica AG, priority 2003, dated 2011).
pIC50: −log10 of the molar value.

Experiments:
[1] = test system: Jurkat; experiment: MTS proliferation assay, Jurkat; format: cell-based, human; conditions: 72 h incubation, read-out: MTS proliferation assay IC 50 Jurkat
Summary of the method: (§1)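 Absorbance at 492 nm after 3 h with MTS reagent gave the proliferation read-out. Before that, cells in RPMI-1640 complete medium (5% or 10% FCS) were treated 72 h with compound at four final concentrations, 0.3 to 10 μM.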

[2] = test system: HT1080; experiment: MTS proliferation assay, HT1080; format: cell-based, human; conditions: HT1080, 72 h incubation; read-out: MTS proliferation assay IC 50 HT1080
Summary of the method: as §1

[3] = test system: adherent cells or suspension cells; experiment: Hoechst 33342 nuclear staining (fraction of apoptotic nuclei); format: cell-based; set-up: key: 0 relating to no activity; 1 relating to weak activity comprising less than 70% of the cells; score 2 relating to strong activity comprising more than 70% of the cells
[4] = test system: HeLa; experiment: MTS proliferation assay, HeLa; format: cell-based, human; conditions: 72 h incubation, read-out: MTS proliferation assay IC 50 HeLa
Summary of the method: as §1

[5] = test system: Jily; experiment: MTS proliferation assay, Jily; format: cell-based; conditions: 72 h incubation, read-out: MTS proliferation assay IC 50 Jily
Summary of the method: (§2)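 Read-out: MTS absorbance at 492 nm after 3 h reagent incubation. Before that, cells grew 72 h at 37° C/7.5% CO2 with test compounds at final concentrations of 10 μM, 3 μM, 1 μM and 0.3 μM, added 24 h post-seeding.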

[6] = test system: MRC5; experiment: MTS proliferation assay, MRC5; format: cell-based; conditions: MRC5, 72 h incubation; read-out: MTS proliferation assay IC 50 MRC5
Summary of the method: as §2

Row | Structure (SMILES) | pIC50 [1] | pIC50 [2] | Hoechst 33342 nuclear staining score ([3]; H460, conc 0.01 μm) | Hoechst 33342 nuclear staining score ([3]; HeLa, conc 0.01 μm) | Hoechst 33342 nuclear staining score ([3]; HeLa, conc 0.1 μm) | Hoechst 33342 nuclear staining score ([3]; HeLa, conc 1 μm) | Hoechst 33342 nuclear staining score ([3]; Jily, conc 0.01 μm) | Hoechst 33342 nuclear staining score ([3]; Jily, conc 0.1 μm) | Hoechst 33342 nuclear staining score ([3]; Jily, conc 1 μm) | Hoechst 33342 nuclear staining score ([3]; Jurkat, conc 0.01 μm) | Hoechst 33342 nuclear staining score ([3]; Jurkat, conc 0.1 μm) | Hoechst 33342 nuclear staining score ([3]; Jurkat, conc 1 μm) | Hoechst 33342 nuclear staining score ([3]; MRC5, conc 0.01 μm) | Hoechst 33342 nuclear staining score ([3]; MRC5, conc 0.1 μm) | Hoechst 33342 nuclear staining score ([3]; PBLs, conc 0.01 μm) | Hoechst 33342 nuclear staining score ([3]; PBLs, conc 0.1 μm) | Hoechst 33342 nuclear staining score ([3]; PBLs, conc 1 μm) | pIC50 [4] | pIC50 [5] | pIC50 [6] | other results
1 | Nc1nonc1-c1nc2ccccc2n1COc1ccc(Br)cc1 [Example 89] | 7.00 to 8.00 | 7.00 to 8.00 | 0 | 0 | 2 (score 2 relating to strong activity comprising more than 70% of the cells) | 2 (score 2 relating to strong activity comprising more than 70% of the cells) | 0 | 2 (score 2 relating to strong activity comprising more than 70% of the cells) | 2 (score 2 relating to strong activity comprising more than 70% of the cells) | 0 | 2 (score 2 relating to strong activity comprising more than 70% of the cells) | 2 (score 2 relating to strong activity comprising more than 70% of the cells) | 0 | 2 (score 2 relating to strong activity comprising more than 70% of the cells) | 0 | 0 | 0 | 7.00 to 8.00 | 7.00 to 8.00 | 6.00 to 7.00 | Hoechst 33342 nuclear staining score ([3]; H460, conc 0.1 μm): 2 (score 2 relating to strong activity comprising more than 70% of the cells); Hoechst 33342 nuclear staining score ([3]; H460, conc 1 μm): 2 (score 2 relating to strong activity comprising more than 70% of the cells); Hoechst 33342 nuclear staining score ([3]; MRC5, conc 1 μm): 2 (score 2 relating to strong activity comprising more than 70% of the cells)
2 | Nc1ccc(C(=O)Cn2c(-c3nonc3N)nc3ccccc32)cn1 [Example 78] | > 8.00 | > 8.00 | 2 (score 2 relating to strong activity comprising more than 70% of the cells) | 2 (score 2 relating to strong activity comprising more than 70% of the cells) | 2 (score 2 relating to strong activity comprising more than 70% of the cells) | 2 (score 2 relating to strong activity comprising more than 70% of the cells) | 2 (score 2 relating to strong activity comprising more than 70% of the cells) | 2 (score 2 relating to strong activity comprising more than 70% of the cells) | 2 (score 2 relating to strong activity comprising more than 70% of the cells) | 2 (score 2 relating to strong activity comprising more than 70% of the cells) | 2 (score 2 relating to strong activity comprising more than 70% of the cells) | 2 (score 2 relating to strong activity comprising more than 70% of the cells) | 1 (1 relating to weak activity comprising less than 70% of the cells) | 2 (score 2 relating to strong activity comprising more than 70% of the cells) | 0 | 0 | 0 | > 8.00 | > 8.00 | > 8.00 | Hoechst 33342 nuclear staining score ([3]; H460, conc 0.1 μm): 2 (score 2 relating to strong activity comprising more than 70% of the cells); Hoechst 33342 nuclear staining score ([3]; H460, conc 1 μm): 2 (score 2 relating to strong activity comprising more than 70% of the cells); Hoechst 33342 nuclear staining score ([3]; MRC5, conc 1 μm): 2 (score 2 relating to strong activity comprising more than 70% of the cells)
3 | COc1cc(C(=O)Cn2c(-c3nonc3N)nc3ccccc32)ccc1OCc1ccccc1 [Example 73] | 6.00 to 7.00 | 6.00 to 7.00 | 0 | 0 | 0 | 1 (1 relating to weak activity comprising less than 70% of the cells) | 0 | 0 | 1 (1 relating to weak activity comprising less than 70% of the cells) | 0 | 0 | 2 (score 2 relating to strong activity comprising more than 70% of the cells) | 0 | 0 | 0 | 0 | 0 | 6.00 to 7.00 | 6.00 to 7.00 | 6.00 to 7.00 | Hoechst 33342 nuclear staining score ([3]; H460, conc 0.1 μm): 0; Hoechst 33342 nuclear staining score ([3]; H460, conc 1 μm): 2 (score 2 relating to strong activity comprising more than 70% of the cells); Hoechst 33342 nuclear staining score ([3]; MRC5, conc 1 μm): 1 (1 relating to weak activity comprising less than 70% of the cells)
4 | COc1ccc(C(=O)Cn2c(-c3nonc3N)nc3ccccc32)cc1OC [Example 76] | 6.00 to 7.00 | 6.00 to 7.00 | 0 | 0 | 0 | 2 (score 2 relating to strong activity comprising more than 70% of the cells) | 0 | 2 (score 2 relating to strong activity comprising more than 70% of the cells) | 2 (score 2 relating to strong activity comprising more than 70% of the cells) | 0 | 2 (score 2 relating to strong activity comprising more than 70% of the cells) | 2 (score 2 relating to strong activity comprising more than 70% of the cells) | 0 | 0 | 0 | 0 | 0 | 6.00 to 7.00 | 7.00 to 8.00 | 6.00 to 7.00 | Hoechst 33342 nuclear staining score ([3]; H460, conc 0.1 μm): 1 (1 relating to weak activity comprising less than 70% of the cells); Hoechst 33342 nuclear staining score ([3]; H460, conc 1 μm): 2 (score 2 relating to strong activity comprising more than 70% of the cells)
5 | Nc1nonc1-c1nc2ccccc2n1COc1ccc(C(F)(F)F)cc1 [Example 91] | 6.00 to 7.00 | 6.00 to 7.00 |  | 0 | 0 | 0 | 0 | 0 | 2 (score 2 relating to strong activity comprising more than 70% of the cells) | 0 | 0 | 2 (score 2 relating to strong activity comprising more than 70% of the cells) | 0 | 0 | 0 | 0 | 0 | 6.00 to 7.00 | 6.00 to 7.00 | 6.00 to 7.00 | Hoechst 33342 nuclear staining score ([3]; MRC5, conc 1 μm): 0
6 | N#CCCNc1nonc1-c1nc2ccccc2n1COc1ccc(Cl)cc1 [Example 93] | 7.00 to 8.00 | 6.00 to 7.00 | 0 | 0 | 0 | 2 (score 2 relating to strong activity comprising more than 70% of the cells) | 0 | 2 (score 2 relating to strong activity comprising more than 70% of the cells) | 2 (score 2 relating to strong activity comprising more than 70% of the cells) | 0 | 2 (score 2 relating to strong activity comprising more than 70% of the cells) | 2 (score 2 relating to strong activity comprising more than 70% of the cells) | 0 | 0 | 0 | 0 | 0 | 6.00 to 7.00 | 7.00 to 8.00 | 6.00 to 7.00 | Hoechst 33342 nuclear staining score ([3]; H460, conc 0.1 μm): 1 (1 relating to weak activity comprising less than 70% of the cells); Hoechst 33342 nuclear staining score ([3]; H460, conc 1 μm): 2 (score 2 relating to strong activity comprising more than 70% of the cells); Hoechst 33342 nuclear staining score ([3]; MRC5, conc 1 μm): 2 (score 2 relating to strong activity comprising more than 70% of the cells)
